Reference: patent US9169252B2 (BRISTOL-MYERS SQUIBB COMPANY, priority 2014, dated 2015)
Where two headings read alike, the source gives them in different places.

Tests used:
[1] = system: TLR2 induced IL-6 in peripheral blood mononuclear cells (PBMCs); assay: PBMC TLR2 Induced IL-6 Assay; format: cell-based, human; conditions: IL-6 by ELISA; for IC50: read-out: Cell IC50; for EC50: read-out: Cell EC50
Summary of the method: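 Lipoteichoic acid at 10 µg/ml served as TLR2 stimulus for 5 hours, following a 30-minute compound pretreatment at 37° C. Cells were Ficoll-isolated human PBMCs, 250000 cells/well, cultured in RPMI plus 10% heat-inactivated FCS.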

IRAK4 = IRAK4 (Homo sapiens (Human), UniProt Q9NWZ3); assay: IRAK4 Inhibition Assay; format: biochemical; conditions: ATP 500 μM, read-out: IRAK4 IC50
Summary of the method: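 IRAK4 combined with fluorescent substrate and compounds, reacted 60 min at room temperature, stopped with 35 mM EDTA. Substrate and phosphorylated product separated electrophoretically on a Caliper LabChip 3000 mobility-shift reader.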

[2] = Homo sapiens, PBMC, human PBMCs, lipoteichoic acid stimulated
[3] = Homo sapiens, PBMC, PBMC TLR2 Induced IL-6 Assay, lipoteichoic acid stimulation
[4] = human PBMCs, lipoteichoic acid stimulated

IRAK4, sequence (Q9NWZ3 whole entry, species assumed): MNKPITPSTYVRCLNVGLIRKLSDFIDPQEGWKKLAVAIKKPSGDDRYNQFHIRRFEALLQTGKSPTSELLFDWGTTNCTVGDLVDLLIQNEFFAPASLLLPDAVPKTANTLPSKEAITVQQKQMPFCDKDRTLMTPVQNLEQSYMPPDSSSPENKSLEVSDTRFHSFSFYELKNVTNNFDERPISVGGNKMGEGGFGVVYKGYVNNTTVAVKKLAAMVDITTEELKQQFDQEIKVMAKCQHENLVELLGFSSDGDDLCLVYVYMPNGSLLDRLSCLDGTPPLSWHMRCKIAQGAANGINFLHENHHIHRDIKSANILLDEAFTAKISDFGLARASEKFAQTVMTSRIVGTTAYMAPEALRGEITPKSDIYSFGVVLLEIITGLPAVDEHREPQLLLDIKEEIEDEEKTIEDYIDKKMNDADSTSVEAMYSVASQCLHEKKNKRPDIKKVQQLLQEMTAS

Compound	IC50 [1, 2]	IC50 (IRAK4; IRAK4 0.6 nM)	IC50 (IRAK4; IRAK4 Inhibition Assay)	EC50 [1, 3]	further results
CC(C)C(O)CNc1cc(-n2ncc3cc(Cl)cnc32)ncc1C(=O)NC[C@@H](F)C(C)(C)O (single isomer, unassigned) [Example 594]	319 nM	17.5 nM	–	–	–
C[C@@H](F)CNc1cc(-n2ncc3cc(C#N)cnc32)ncc1C(=O)NC[C@@H](F)C(C)(C)O [Example 582]	109 nM	3.8 nM	–	–	–
CC(C)CC(=O)NCc1cnc2c(cnn2-c2cc(NC(C)C)c(C(=O)NC[C@@H](F)C(C)(C)O)cn2)c1 [Example 280]	–	–	16.9 nM	–	IC50 [1, 3]: 692 nM
CC(C)(CN)CNc1cc(-n2ncc3cc(C#N)cnc32)ncc1C(=O)NC[C@@H](F)C(C)(C)O [Example 585]	147 nM	8.5 nM	–	–	–
CC(C)(O)[C@H]1CCC[C@@H](Nc2cc(-n3ncc4cc(C#N)cnc43)ncc2C(=O)NC[C@@H](F)C(C)(C)O)C1 [Example 612]	262 nM	5.6 nM	–	–	EC50 [1, 2]: 163 nM
CC(C)Nc1cc(N2CCc3cc(C#N)cnc32)ncc1C(=O)NC[C@@H](F)C(C)(C)O [Example 567]	264 nM	9.9 nM	–	–	EC50 [1, 2]: 164 nM
CC(C)(F)[C@H](F)CNC(=O)c1cnc(-n2ncc3cc(C#N)cnc32)cc1Nc1cnn(CC(F)F)c1 [Example 395]	85 nM	2.2 nM	–	–	–
CCCC(=O)NCc1cnc2c(ccn2-c2cc(NC(C)C)c(C(=O)NC[C@@H](F)C(C)(C)O)cn2)c1 [Example 510]	250 nM	3.2 nM	–	–	–
CC(C)Nc1cc(-n2ncc3cc(C#N)cnc32)ncc1C(=O)NCCCN1CCOCC1 [Example 201]	–	–	16.3 nM	583 nM	–
CC(C)(O)[C@H](F)CNC(=O)c1cnc(-n2ccc3cc(C#N)cnc32)cc1NC1COCC1(F)F (single isomer, unassigned) [Example 485]	–	8.7 nM	–	–	EC50 [1, 2]: 198 nM; IC50 [1, 4]: 1080 nM
CC(C)Nc1cc(-n2ncc3cc(C#N)c(N)nc32)ncc1C(=O)NC[C@@H](F)C(C)(C)F [Example 295]	–	–	1.9 nM	–	IC50 [1, 3]: 240 nM
CC(C)(O)[C@H](F)CNC(=O)c1cnc(-n2ncc3cc(C#N)cnc32)cc1NC12CCC(O)(CC1)C2 [Example 613]	130 nM	2.8 nM	–	–	EC50 [1, 2]: 157 nM
CC(C)Nc1cc(-n2cnc3cnc(N)nc32)ncc1C(=O)NC[C@@H](F)C(C)(C)O [Example 171, (R)-6-(2-Amino-9H-purin-9-yl)-N-(2-fluoro-3-hydroxy-3-methylbutyl)-4-(isopropylamino)nicotinamide]	–	–	3.7 nM	208 nM	IC50 [1, 3]: 587 nM
CC(C)(O)[C@H](F)CNC(=O)c1cnc(-n2ncc3cc(C#N)cnc32)cc1NC12CC(C1)C2 [Example 635]	375 nM	1.8 nM	–	–	–
CCNc1cc(-n2ccc3cc(C#N)cnc32)ncc1C(=O)N[C@H]1CC[C@H](C(C)(C)O)CC1 [Example 100, 6-(5-cyano-1H-pyrrolo[2,3-b]pyridin-1-yl)-4-(ethylamino)-N-((trans)-4-(2-hydroxypropan-2-yl)cyclohexyl)nicotinamide]	–	–	2.5 nM	95 nM	–
CO[C@H]1CC[C@H](NC(=O)c2cnc(-n3ncc4cc(C#N)cnc43)cc2NC2COC2)CC1 [Example 552]	213 nM	13.4 nM	–	–	–
CC(CF)Nc1cc(-n2ccc3cncnc32)ncc1C(=O)NC[C@@H](F)C(C)(C)O (stereo partly drawn) [Example 113, N—((R)-2-Fluoro-3-hydroxy-3-methylbutyl)-4-((1-fluoropropan-2-yl)amino)-6-(7H-pyrrolo[2,3-d]pyrimidin-7-yl)nicotinamide]	–	–	1.9 nM	222 nM	–
CC(C)(O)[C@H](F)CNC(=O)c1cnc(-n2ccc3cc(C#N)cnc32)cc1Nc1cccc(C#N)c1 [Example 66, (R)-6-(5-cyano-1H-pyrrolo[2,3-b]pyridin-1-yl)-4-((3-cyanophenyl)amino)-N-(2-fluoro-3-hydroxy-3-methylbutyl)nicotinamide]	–	–	1.7 nM	201 nM	–
CNC(=O)[C@H]1CC[C@H](NC(=O)c2cnc(-n3ncc4cc(Cl)cnc43)cc2NC(C)C)CC1 [Example 152, 6-(5-chloro-1H-pyrazolo[3,4-b]pyridin-1-yl)-4-(isopropylamino)-N-((trans)-4-(methylcarbamoyl)cyclohexyl)nicotinamide]	–	–	5.6 nM	294 nM	–
CC(C)(O)[C@H](F)CNC(=O)c1cnc(-n2ccc3cc(Cl)cnc32)cc1NC1CCOCC1 [Example 32, (R)-6-(5-chloro-1H-pyrrolo[2,3-b]pyridin-1-yl)-N-(2-fluoro-3-hydroxy-3-methylbutyl)-4-((tetrahydro-2H-pyran-4-yl)amino) nicotinamide]	–	–	1.9 nM	75 nM	IC50 [1, 3]: 562 nM

Compound	IC50 [1, 2]	IC50 (IRAK4; IRAK4 0.6 nM)	IC50 (IRAK4; IRAK4 Inhibition Assay)	EC50 [1, 3]	further results
CC(C)Nc1cc(-n2ccc3cc(C#N)cnc32)ncc1C(=O)NCC(F)C1(O)COC1 (stereo not drawn) [Example 494]	289 nM	3 nM	–	–	–
Cn1cc(Nc2cc(-n3ncc4cc(Cl)cnc43)ncc2C(=O)NC[C@@H](F)C(C)(C)O)cn1 [Example 398]	277 nM	4.9 nM	–	–	–
CC(F)(F)Cn1cc(Nc2cc(-n3ncc4cc(C#N)cnc43)ncc2C(=O)NC[C@@H](F)C(C)(C)O)cn1 [Example 365]	–	–	1.7 nM	–	IC50 [1, 3]: 66 nM
C[C@@H](CF)Nc1cc(-n2ccc3cc(C#N)cnc32)ncc1C(=O)NCCC(C)(C)O [Example 119, (S)-6-(5-cyano-1H-pyrrolo[2,3-b]pyridin-1-yl)-4-((1-fluoropropan-2-yl)amino)-N-(3-hydroxy-3-methylbutyl)nicotinamide]	–	–	4.4 nM	91 nM	–
CC(C)(O)[C@H](F)CNC(=O)c1cnc(-n2ncc3cc(C#N)cnc32)cc1NCCC(F)(F)F [Example 563, (R)-6-(5-Cyano-1H-pyrazolo[3,4-b]pyridin-1-yl)-N-(2-fluoro-3-hydroxy-3-methylbutyl)-4-((3,3,3-trifluoropropyl)amino)nicotinamide]	–	5 nM	–	–	EC50 [1, 2]: 159 nM
CC(C)(O)[C@H](F)CNC(=O)c1cnc(-n2ccc3cc(C#N)cnc32)cc1NC1COCC1(F)F (single isomer, unassigned) [Example 484]	–	3.5 nM	–	–	IC50 [1, 4]: 282 nM
CC(C)Nc1cc(-n2ccc3cc(Cl)ccc32)ncc1C(=O)NC[C@@H](F)C(C)(C)O [Example 37, (R)-6-(5-chloro-1H-indol-1-yl)-N-(2-fluoro-3-hydroxy-3-methylbutyl)-4-(isopropylamino)nicotinamide]	–	–	11.8 nM	1230 nM	–
CNC(=O)c1cccc(Nc2cc(-n3ccc4cc(C#N)cnc43)ncc2C(=O)NC[C@@H](F)C(C)(C)O)c1 [Example 55, (R)-6-(5-cyano-1H-pyrrolo[2,3-b]pyridin-1-yl)-N-(2-fluoro-3-hydroxy-3-methylbutyl)-4-((3-(methylcarbamoyl)phenyl)amino)nicotinamide]	–	–	3.6 nM	513 nM	–
CC(C)(O)[C@H]1CC[C@H](NC(=O)c2cnc(-n3ncc4cc(Cl)cnc43)cc2NC2COC2)CC1 [Example 556]	305 nM	6.2 nM	–	–	–
CC(C)Nc1cc(-n2ncc3cc(C#N)cnc32)ncc1C(=O)NCCC1(O)CCN(C2COC2)CC1 [Example 253]	–	–	8.5 nM	–	IC50 [1, 3]: 363 nM
CC(C)(O)[C@H]1CC[C@H](Nc2cc(-n3ncc4cc(Cl)cnc43)ncc2C(=O)NC[C@@H](F)C(C)(C)O)C1 [Example 628]	148 nM	3.3 nM	–	–	–
CC[C@@H](C)Nc1cc(-n2ncc3cc(C#N)c(N)nc32)ncc1C(=O)NC[C@@H](F)C(C)(C)O [Example 300]	–	–	1.6 nM	–	IC50 [1, 3]: 83 nM
CCCCNC(=O)NCc1cnc2c(ccn2-c2cc(NC(C)C)c(C(=O)NC[C@@H](F)C(C)(C)O)cn2)c1 [Example 516]	414 nM	8.6 nM	–	–	–
CC(C)(O)CNc1cc(-n2ccc3cc(C#N)cnc32)ncc1C(=O)NC[C@@H](F)C(C)(C)O [Example 77, (R)-6-(5-cyano-1H-pyrrolo[2,3-b]pyridin-1-yl)-N-(2-fluoro-3-hydroxy-3-methylbutyl)-4-((2-hydroxy-2-methylpropyl)amino)nicotinamide]	–	–	2.6 nM	–	IC50 [1, 3]: 161 nM
CCNc1cc(-n2ccc3cc(C(N)=O)cnc32)ncc1C(=O)NC[C@@H](F)C(C)(C)O [Example 123, (R)-1-(4-(Ethylamino)-5-((2-fluoro-3-hydroxy-3-methylbutyl)carbamoyl)pyridin-2-yl)-1H-pyrrolo[2,3-b]pyridine-5-carboxamide]	–	–	4.5 nM	128 nM	–
CC(C)NC(=O)[C@H](F)CNC(=O)c1cnc(-n2ncc3cc(C#N)cnc32)cc1NC(C)C [Example 197]	–	–	8.1 nM	297 nM	–
CNC(=O)[C@H]1CC[C@H](NC(=O)c2cnc(-n3ncc4cc(C#N)c(N)nc43)cc2N[C@H]2CCCC[C@@H]2F)CC1 [Example 630]	30 nM	2.2 nM	–	–	–
CC(C)Nc1cc(-n2ccc3cncnc32)ncc1C(=O)NC[C@@H](F)C(C)(C)O [Example 39, (R)—N-(2-fluoro-3-hydroxy-3-methylbutyl)-4-(isopropylamino)-6-(7H-pyrrolo[2,3-d]pyrimidin-7-yl)nicotinamide]	–	–	1.1 nM	151 nM	IC50 [1, 3]: 151 nM
CC(C)Nc1cc(-n2ncc3cc(C#N)cnc32)ncc1C(=O)NCCc1ccc(F)cc1 [Example 260]	–	–	3.3 nM	–	IC50 [1, 3]: 159 nM
CCCn1cc(Nc2cc(-n3ncc4cc(Cl)cnc43)ncc2C(=O)NC[C@@H](F)C(C)(C)O)cn1 [Example 381]	–	–	2.5 nM	–	IC50 [1, 3]: 41 nM
